Assay results from article PMC9697446 (International Journal of Molecular Sciences, 2022).

Key:
[1] = ABTS radical cation scavenging assay; details: 1 h incubation, means ± SEM (n = 3); for IC50: 50% reduction of ABTS radical; for ABTS Scavenging Activity, TEAC Value: Trolox equivalent antioxidant capacity
Method: The ABTS assay is based on the direct binding of a model ABTS radical cation (2,2′-azino-bis-(3-ethylbenzothiazoline-6-sulfonate), ABTS^•+) by antioxidants. The measurements were performed as previously described in detail.
The radical scavenging activity was expressed as TEAC values (Trolox equivalent antioxidant capacity) and determined as the ratio between the slopes obtained from the linear correlation of the ABTS radical absorbance with the concentrations of the test compounds and Trolox.
The radical scavenging activity of the compounds was assessed using an ABTS radical decolorization assay. The procedure followed the reported protocol with minor modifications. ABTS (2,2ʹ-azino-bis-(3-ethylbenzothiazoline-6-sulfonic acid) diammonium salt) was purchased from TCI (Tokyo, Japan), while potassium persulfate (di-potassium peroxodisulfate), Trolox (6-hydroxy-2,5,7,8-tetramethylchroman-2-carboxylic acid), catechol, and DMSO were received from Sigma-Aldrich Chemical Co. (St. Louis, MO, USA). The ethanol was HPLC grade. Aqueous solutions were prepared using deionized water.
Trolox was used as the standard reference compound. Catechol was used as the positive control. All test and reference compounds were dissolved in DMSO. The final concentration of DMSO in the reaction mixture was 4% (v/v).
The solution of ABTS radical cation (ABTS^•+) was produced by mixing a 7 mM ABTS stock solution with a 2.45 mM aqueous solution of potassium persulfate in equal quantities and allowing them to react for 12–16 h at room temperature in the dark. At the time of activity determination, the ABTS^•+ solution was diluted with ethanol to adjust it to an absorbance value of about 0.80 ± 0.05 at 734 nm. A fresh working solution of ABTS^•+ was prepared for each assay.
The radical scavenging capacity of the compounds was analyzed by mixing 10 μL of test compound with 240 μL of ABTS^•+ working solution. The reduction in absorbance was measured spectrophotometrically at 734 nm using an xMark microplate UV/VIS spectrophotometer (Bio-Rad, Hercules, CA, USA). The reaction was monitored for an hour at 10 min intervals. Data were given for 1 h of incubation of compounds with ABTS^•+. EtOH blanks were run in each assay. The results were obtained from three replicates of each sample and three independent experiments.
The antioxidant capacity as a Trolox equivalent (TEAC values) was determined as the ratio between the slopes obtained from the linear correlation of concentrations of test compounds and Trolox with absorbance of ABTS radical.

[2] = Oxygen radical absorbance capacity assay (ORAC-FL); details: Trolox equivalent, Trolox = 1; means ± SEM (n = 3)
From the text: The method is based on the measurement of the fluorescence intensity characterizing the degree of destruction of the fluorescence probe under the action of peroxyl radicals.
The peroxyl radical scavenging capacity of the test compounds was characterized in terms of the Trolox equivalent (TE), which is equal to the ratio of the Trolox concentration to the concentration of a test compound when they show equal fluorescence intensities in the assay. The peroxyl radical scavenging capacity of Trolox was set as 1 [67, 68].
2,2´-Azobis(amidinopropane) dihydrochloride (AAPH), (±)-6-hydroxy-2,5,7,8-tetramethylchroman-2-carboxylic acid (Trolox), and fluorescein (FL) were purchased from Sigma-Aldrich. The reaction was carried out at 37 °C in 75 mM K,Na phosphate buffer (pH 7.4), and the final reaction mixture was 200 µL. The test compounds and the Trolox standard were dissolved in DMSO to 10 mM and further diluted in a 75 mM K,Na phosphate buffer (pH 7.4). The final concentrations were 0.1–1 µM for the test compounds and 1–6 µM for the Trolox. The blank was composed of 20 µL of a 75 mM K,Na phosphate buffer (pH 7.4) containing 20% (v/v) DMSO, 120 µL of FL and 60 µL of AAPH, and it was added in each assay. The antioxidant (20 µL) and FL (120 µL, final concentration: 70 nM) solutions were placed in a black 96-well microplate and were preincubated for 15 min at 37 °C. A solution of AAPH (60 µL, final concentration: 12 mM) was then added rapidly using a multichannel pipette. The microplate was immediately placed in the reader, and the fluorescence was recorded every minute for 100 min. The microplate was automatically shaken prior to each reading. The Trolox standard curve was also obtained in each assay. All reactions were carried out in triplicate, and at least three different assays were performed for each sample.
The antioxidant curves (fluorescence vs. time) were first normalized to the curve of the blank (without the antioxidant) corresponding to the same assay, and the area under the fluorescence decay curve (AUC) was calculated. The net AUC corresponding to a sample was calculated by subtracting the AUC corresponding to the blank. Regression equations were calculated by plotting the net AUC against the antioxidant concentration. The ORAC Tolox equivalent value (TE) was obtained by dividing the slope of the latter curve by the slope of the Trolox curve obtained in the same assay. The ability of Trolox to scavenge the peroxyl radical was equal to 1 [64, 65]. […] The data are expressed as means ± SEM.

[3] = system: porcine liver CES; assay: CES inhibition (4-nitrophenyl acetate hydrolysis); assay type: biochemical; details: ± SEM, n = 3;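 note: values are percent inhibition of CES activity not residual activity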
Method: (§1) The esterase profile was estimated using the human erythrocyteAChE, the equine serum BChE, and the porcine liver CES.
(§2) Human erythrocyte AChE, equine serum BChE, porcine liver CES, acetylthiocholine iodide (ATCh), butyrylthiocholine iodide (BTCh), 5,5′-dithio-bis-(2-nitrobenzoic acid) (DTNB), 4-nitrophenol acetate (4-NPA), and BNPP were purchased from Sigma-Aldrich (St. Louis, MO, USA).
The assay solution consisted of 0.1 M K/Na phosphate buffer pH 8.0, 25 °C, with the addition of 1 mM 4-nitrophenyl acetate and 0.02 unit/mL of CES. The assays were carried out with a blank containing all components, except CES.
(§3) The test compounds were dissolved in DMSO, and the incubation mixture contained 2% (v/v) of the solvent. Enzyme inhibition was first assessed at a single concentration of 20 µM for each compound after a 5 min incubation at 25 °C in three separate experiments. […] The test compounds were added to the assay solution and preincubated at 25 °C with the enzymes for 5 min, followed by the addition of substrate. A parallel control was made for the assay solution with no inhibitor. Measurements were performed with a FLUOStar Optima microplate reader (BMG Labtech, Ortenberg, Germany). Each experiment was performed in triplicate. The results were expressed as the mean ± SEM. The reaction rates in the presence and absence of the inhibitor were compared, and the percent of residual enzyme activity due to the presence of test compounds was calculated.

[4] = molecular target: T1, equine serum BChE (Equus caballus, UniProt P81908); assay: biochemical; details: IC50 ± SEM, n = 3
T1 construct: the equine serum BChE, and the porcine liver CES; purchased Sigma-Aldrich; host or cells: equine serum
Method: as §1, §2
(§4) AChE and BChE activities were measured via the Ellman method. The assay solution consisted of 0.1 M K/Na phosphate buffer pH 7.5, 25 °C with the addition of 0.33 mM DTNB, 0.02 unit/mL of AChE or BChE and 1 mM of substrate (ATCh or BTCh, respectively). The assays were carried out with a reagent blank containing all components (except AChE orBChE) in order to account for the non-enzymatic hydrolysis of the substrate. In addition, an enzyme blank was included that contained all components except substrate to account for non-substrate sulfhydryl groups.
as §3

[5] = molecular target: T2, human erythrocyte AChE (Homo sapiens, UniProt P22303); assay: biochemical; details: IC50 ± SEM, n = 3
T2 construct: The esterase profile was estimated using the human erythrocyteAChE; purchased Sigma-Aldrich; host or cells: human erythrocytes
Method: as §1, §2, §4, §3

[6] = molecular target: T3, EeAChE (Electrophorus electricus, UniProt O42275); assay: biochemical; details: means ± SEM (n = 3); read-out: EeAChE Inhibition, IC50
T3 construct: purchased Sigma-Aldrich type VI-S
Method: We selected AChE from electric eels (Electrophorus electricus) for consistency with our other reports and because of its purity, specific activity, and lower cost compared to human AChE [64].
as §4, §3
(§5) PIand donepezil were purchased from Sigma-Aldrich. […] As the source of the enzyme, electric eel (Elecrophorus electricus) AChE (EeAChE, type VI-S, lyophilized powder, Sigma-Aldrich, Saint Louis, MO, USA) was used. The applicability of this enzyme was shown earlier

[7] = molecular target: T4, EeAChE PAS (Electrophorus electricus, UniProt O42275); assay: biochemical; assay type: binding; details: EeAChE 7 µM, PI 8 µM, means ± SEM (n = 3); for inhibition at 3 µM: compound 3 µM, read-out: PI Displacement, 3 µM; for inhibition at 20 µM: compound 20 µM, read-out: PI Displacement, 20 µM
T4 construct: purchased Sigma-Aldrich type VI-S
Method: as §5
To determine the percentage of displacement of PI from the EeAChE PAS, EeAChE (with a final concentration of 7 μM) was incubated with the test compound at a concentration of 3 and 20 μM in 1 mM Tris-HCl buffer pH 8.0, 25 °C for 15 min. Next, PIsolution (with a final concentration of 8 μM) was added, the samples were incubated for 15 min, and the fluorescence spectrum (530 nm (exc.) and 600 nm (emiss.)) was taken. Donepezil and decamethonium were used as reference compounds. The blank contained PI of the same concentration in 1 mM Tris-HCl buffer pH 8.0. The measurements were carried out in triplicate on a FLUOStar Optima microplate reader).
The percentage of displacement of PIfrom the peripheral anionic site of AChE was calculated using the following formula:% Displacement = 100 − (IFAChE+Propidium+inhibitor/IFAChE+Propidium) × 100,(1) where IFAChE+Propidium is the fluorescence intensity of the propidium associated with AChE in the absence of the test compound (taken as 100%) and IFAChE+Propidium+inhibitor is the fluorescence intensity of the propidium associated with AChE in the presence of the test compound.

T4 sequence (O42275 24-633): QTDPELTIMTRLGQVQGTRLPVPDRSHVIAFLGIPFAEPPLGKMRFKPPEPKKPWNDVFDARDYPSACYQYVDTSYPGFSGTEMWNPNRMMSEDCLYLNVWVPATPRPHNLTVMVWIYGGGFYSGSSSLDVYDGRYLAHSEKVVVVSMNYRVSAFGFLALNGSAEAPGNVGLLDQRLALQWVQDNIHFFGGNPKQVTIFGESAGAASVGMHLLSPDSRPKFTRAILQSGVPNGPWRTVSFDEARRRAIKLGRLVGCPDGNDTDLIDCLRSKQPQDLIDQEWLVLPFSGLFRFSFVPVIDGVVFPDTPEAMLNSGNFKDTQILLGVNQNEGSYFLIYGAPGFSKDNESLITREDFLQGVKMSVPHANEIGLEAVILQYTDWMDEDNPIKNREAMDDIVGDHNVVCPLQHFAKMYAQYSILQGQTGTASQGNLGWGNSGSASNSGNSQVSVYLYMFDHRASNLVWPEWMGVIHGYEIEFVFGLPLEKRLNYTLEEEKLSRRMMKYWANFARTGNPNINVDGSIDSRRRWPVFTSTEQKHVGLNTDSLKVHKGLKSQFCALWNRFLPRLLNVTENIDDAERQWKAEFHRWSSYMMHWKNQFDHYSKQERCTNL
T3 sequence (O42275 24-633): as above
T1 sequence (P81908 whole entry): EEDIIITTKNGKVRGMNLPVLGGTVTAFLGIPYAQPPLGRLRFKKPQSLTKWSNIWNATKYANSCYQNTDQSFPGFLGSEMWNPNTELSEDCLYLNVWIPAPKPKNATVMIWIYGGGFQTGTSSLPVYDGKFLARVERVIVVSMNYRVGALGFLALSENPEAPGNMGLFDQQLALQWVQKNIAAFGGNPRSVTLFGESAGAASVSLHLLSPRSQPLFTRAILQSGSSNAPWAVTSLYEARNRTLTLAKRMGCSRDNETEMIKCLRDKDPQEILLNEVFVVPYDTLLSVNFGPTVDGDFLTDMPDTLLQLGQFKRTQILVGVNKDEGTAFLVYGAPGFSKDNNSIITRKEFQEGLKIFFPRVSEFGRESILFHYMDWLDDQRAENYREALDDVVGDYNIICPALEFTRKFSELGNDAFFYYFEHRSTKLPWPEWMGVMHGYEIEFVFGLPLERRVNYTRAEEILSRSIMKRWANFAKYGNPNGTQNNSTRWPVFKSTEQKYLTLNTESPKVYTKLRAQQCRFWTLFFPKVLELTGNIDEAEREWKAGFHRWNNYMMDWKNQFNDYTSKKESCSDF
T2 sequence (P22303 32-617 isoform P22303-2 limits assumed): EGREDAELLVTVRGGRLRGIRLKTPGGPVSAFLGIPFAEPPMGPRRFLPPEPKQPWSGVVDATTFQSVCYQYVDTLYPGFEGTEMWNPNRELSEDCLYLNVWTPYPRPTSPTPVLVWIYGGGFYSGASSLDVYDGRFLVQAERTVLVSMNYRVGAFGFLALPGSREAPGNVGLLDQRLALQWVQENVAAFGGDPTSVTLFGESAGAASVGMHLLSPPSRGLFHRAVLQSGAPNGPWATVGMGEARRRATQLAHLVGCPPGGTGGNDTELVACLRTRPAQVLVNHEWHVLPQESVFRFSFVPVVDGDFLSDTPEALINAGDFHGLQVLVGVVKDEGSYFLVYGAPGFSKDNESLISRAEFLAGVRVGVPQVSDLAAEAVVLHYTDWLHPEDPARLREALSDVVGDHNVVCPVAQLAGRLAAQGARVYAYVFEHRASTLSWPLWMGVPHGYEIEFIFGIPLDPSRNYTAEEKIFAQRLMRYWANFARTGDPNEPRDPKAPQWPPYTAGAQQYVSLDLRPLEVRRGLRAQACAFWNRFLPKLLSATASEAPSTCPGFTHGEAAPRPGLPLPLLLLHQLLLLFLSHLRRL

Row | Structure (SMILES) | IC50 [1] | ABTS Scavenging Activity, TEAC Value [1] | ORAC, TE Value [2] | CES inhibition at 20 µM [3] | IC50 [4] | IC50 [5] | IC50 [6] | inhibition at 3 µM [7] | inhibition at 20 µM [7]
1 | Oc1ccccc1O [Catechol, catechol, reference compound] | 16.7 ± 1.2 µM | 1.20 ± 0.11 | 6.6 ± 0.2 | – | – | – | – | – | –
2 | c1ccc2c(c1)[nH]c1ccccc12 [carbazole, reference compound] | – | – | – | 9.4 ± 1.0% | – | – | – | – | –
3 | CC1CCc2c(c3cc(C(F)(F)F)ccc3n2CCC(=O)N2c3ccc(N(C)C)cc3Sc3cc(N(C)C)ccc32)C1 (stereo not shown) [Compound 4g] | 30.8 ± 2.9 µM | 0.70 ± 0.04 | 6.5 ± 0.1 | 1.4 ± 0.2% | 20.3 ± 0.21 µM | 3.56 ± 0.09 µM | 800 ± 50 nM | 20.9 ± 1.3% | 32.8 ± 0.7%
4 | Cc1c(C)c2c(c(C)c1O)CCC(C)(C(=O)O)O2 (stereo not shown) [Trolox, 6-hydroxy-2,5,7,8-tetramethylchroman-2-carboxylic acid, reference compound] | 20.4 ± 1.7 µM | 1.00 | 1.00 | – | – | – | – | – | –
5 | CN(C)c1ccc2c(c1)Sc1cc(N(C)C)ccc1N2C(=O)CCn1c2c(c3cc(OC(F)(F)F)ccc31)CCCCC2 [Compound 4l] | 20.7 ± 1.7 µM | 0.98 ± 0.09 | 8.4 ± 0.8 | 7.6 ± 0.8% | 42.2 ± 2.93 µM | 15 ± 1.12 µM | 3400 ± 210 nM | 14.9 ± 0.1% | 17 ± 1.2%
